Laboratory results from patent publication US10881110B2, “Herbicidal compositions comprising isoxazolo[5,4-b]pyridines” (BASF SE, priority 2014, dated 2021).

What was measured:
Assay in all cases: greenhouse post-emergence herbicidal test
GERDI = assay type: in vivo, Geranium dissectum; set-up: key to herbicidal activity against GERDI found: rating on a scale from 0 to 100; conditions: post emergence
How it was run: (§1)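 Post-emergence spray on 1–15 cm plants in medium loamy sand pots; actives as 10% w/w EC diluted in water. 10-25° C / 20-35° C per species. Visual score 20 d after treatment, 0 = no damage, 100 = full kill; Colby expected value E=X+Y−(X·Y/100).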

GALAP = assay type: in vivo, Galium aparine; set-up: key to herbicidal activity against GALAP found: rating on a scale from 0 to 100; conditions: post emergence
How it was run: (§2)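 Post-emergence greenhouse test: plants in loamy sand, sprayed at 1–15 cm height with aqueous spray liquor from 10% emulsion concentrates, kept at 10-25 °C or 20-35 °C by species. Damage scored 0–100 (100 = complete destruction), usually 20 days after treatment. Expected additive effect E from Colby: E=X+Y−(X·Y/100).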

PAPRH = assay type: in vivo, Papaver rhoeas; set-up: key: rating on a scale from 0 to 100
Procedure: (§3) The culture containers used were plastic pots containing medium loamy sand with approximately 4.6% of humus and 69.9% sand as substrate. The seeds of the test plants were sown separately for each species.
(§4) For the post-emergence treatment, the test plants were grown to a plant height of from 1 to 15 cm, depending on the plant habit, and only then treated with the active compounds which had been suspended or emulsified in water. To this end, the test plants were either sown directly, and grown in the same containers, or they were first grown separately as seedlings and transplanted into the test containers a few days prior to treatment.
(§5) Depending on the species, the plants were kept at 10-25° C. and 20-35° C., respectively.
(§6) The test period extended over 1 to 3 weeks. During this time, the plants were tended and their response to the individual treatments was evaluated 20 days after treatment except mentioned otherwise.
(§7) Evaluation was carried out using a scale from 0 to 100. 100 means no emergence of the plants, or complete destruction of at least the above-ground parts, and 0 means no damage or normal course of growth.
(§8) The respective stated components A and B, and, if appropriate, C, were formulated as a 10% by weight strength emulsion concentrate and, with addition of the amount of solvent system, introduced into the spray liquor used for applying the active compound. In the examples, the solvent used was water.
(§9) In the examples below, using the method of S. R. Colby (1967) “Calculating synergistic and antagonistic responses of herbicide combinations”, Weeds 15, p. 22 ff., the value E, which is expected if the activity of the individual active compounds is only additive, was calculated. E=X+Y−(X·Y/100)

ERICA = assay type: in vivo, Conyza canadensis; set-up: key to herbicidal activity against ERICA found: rating on a scale from 0 to 100; conditions: post emergence
How it was run: as §1

ECHCG = assay type: in vivo, Echinochloa crus-galli; set-up: key to herbicidal activity against ECHCG found / herbicidal activity against ECHCH found: scale 0 to 100; conditions: post emergence
Procedure: as §3, §4, §5, §6, §7, §8, §9

ALOMY = assay type: in vivo, Alopecurus myosuroides; set-up: key to herbicidal activity against ALOMY found: rating on a scale from 0 to 100; conditions: for herbicidal activity against ALOMY found: post emergence, B.95 1 g/ha a.i.
How it was run: as §1

MATCH = assay type: in vivo, Matricaria recutita; set-up: key to herbicidal activity against MATCH found: rating on a scale from 0 to 100; conditions: for herbicidal activity against MATCH found: post emergence
How it was run: as §1

APESV = assay type: in vivo, Apera spica-venti; set-up: key to herbicidal activity against APESV found: rating on a scale from 0 to 100; conditions: for herbicidal activity against APESV found: post emergence, B.95 1 g/ha a.i.
How it was run: as §1

STEME = assay type: in vivo, Stellaria media; set-up: key: scale 0 to 100
Procedure: as §3, §4, §5, §6, §7, §8, §9

KCHSC = assay type: in vivo, Kochia scoparia; set-up: key to herbicidal activity against KCHSC found: rating on a scale from 0 to 100; conditions: for herbicidal activity against KCHSC found: post emergence
How it was run: as §2

POLCO = assay type: in vivo, Polygonum convolvulus; set-up: key to herbicidal activity against POLCO found: rating on a scale from 0 to 100; conditions: for herbicidal activity against POLCO found: post emergence
How it was run: as §2

IPOHE = assay type: in vivo, Ipomoea hederacea; set-up: key to herbicidal activity against IPOHE found: rating on a scale from 0 to 100; conditions: post emergence
How it was run: as §2

ABUTH = assay type: in vivo, Abutilon theophrast; conditions: Abutilon theophrasti, post-emergence, 480 h, read-out: herbicidal activity against ABUTH found
How it was run: as §1

VIOAR = assay type: in vivo, Viola arvensis; conditions: Viola arvensis, post-emergence, read-out: herbicidal activity against VIOAR found
How it was run: as §2

[1] = I.1 62.5 g/ha, B.95 1 g/ha a.i.
[2] = I.1 62.5 g/ha, B.95 2 g/ha a.i.
[3] = I.1 31.25 g/ha, B.95 1 g/ha a.i.
[4] = I.1 31.25 g/ha, B.95 2 g/ha a.i.
[5] = I.1 15.62 g/ha, B.95 1 g/ha a.i.
[6] = I.1 15.62 g/ha, B.103 15 g/ha a.i.
[7] = I.1 15.6 g/ha, B.103 7.5 g/ha a.i.
[8] = I.1 31.25 g/ha, B.103 7.5 g/ha a.i.
[9] = I.1 31.25 g/ha, B.103 15 g/ha a.i.
[10] = I.1 62.5 g/ha, B.103 7.5 g/ha a.i.
[11] = I.1 62.5 g/ha, B.103 15 g/ha a.i.
[12] = Matricaria chamomilla, post-emergence, 480 h, read-out: herbicidal activity against MATCH found
[13] = a.i. g/ha: I.1 62.5, B.191 225, 20 days after treatment

C#CCN1C(=O)C(F)(F)Oc2cc(F)c(-n3c(=O)n(C)c(=S)n(C)c3=O)cc21 [B.95, trifludimoxazin]
herbicidal activity against GERDI found (GERDI; [1]): 65 | herbicidal activity against GERDI found (GERDI; [2]): 65 | herbicidal activity against GALAP found (GALAP; [3]): 75 | herbicidal activity against GALAP found (GALAP; [4]): 75 | herbicidal activity against GALAP found (GALAP; [2]): 75 | herbicidal activity against PAPRH found (PAPRH; [3]): 35 | herbicidal activity against PAPRH found (PAPRH; [1]): 35 | herbicidal activity against ERICA found (ERICA; [5]): 40 | herbicidal activity against ERICA found (ERICA; I.1 15.62 g/ha, B.95 2 g/ha a.i.): 45 | herbicidal activity against ERICA found (ERICA; [3]): 40 | herbicidal activity against ERICA found (ERICA; [4]): 45 | herbicidal activity against ERICA found (ERICA; [1]): 40 | herbicidal activity against ERICA found (ERICA; [2]): 45 | herbicidal activity against ECHCG found (ECHCG; [5]): 25 | herbicidal activity against ECHCG found (ECHCG; [2]): 45 | herbicidal activity against ALOMY found (ALOMY; I.1 31.25 g/ha): 25 | herbicidal activity against ALOMY found (ALOMY; I.1 62.5 g/ha): 25 | herbicidal activity against MATCH found (MATCH; [5]): 30 | herbicidal activity against MATCH found (MATCH; [3]): 30 | herbicidal activity against MATCH found (MATCH; [4]): 65 | herbicidal activity against MATCH found (MATCH; [2]): 65 | herbicidal activity against APESV found (APESV; I.1 15.62 g/ha): 30 | herbicidal activity against APESV found (APESV; I.1 62.5 g/ha): 30

O=C(Nc1ccc(F)cc1)c1cccc(Oc2cccc(C(F)(F)F)c2)n1 [B.103, picolinafen]
herbicidal activity against STEME found (STEME; [6]): 65 | herbicidal activity against GERDI found (GERDI; [7]): 0 | herbicidal activity against GERDI found (GERDI; [8]): 0 | herbicidal activity against GERDI found (GERDI; [9]): 0 | herbicidal activity against GERDI found (GERDI; [10]): 0 | herbicidal activity against GERDI found (GERDI; [11]): 0 | herbicidal activity against GALAP found (GALAP; [10]): 70 | herbicidal activity against PAPRH found (PAPRH; [6]): 70 | herbicidal activity against PAPRH found (PAPRH; [9]): 70 | herbicidal activity against KCHSC found (KCHSC; [8]): 60 | herbicidal activity against KCHSC found (KCHSC; [9]): 60 | herbicidal activity against KCHSC found (KCHSC; [10]): 60 | herbicidal activity against KCHSC found (KCHSC; [11]): 60 | herbicidal activity against ERICA found (ERICA; [9]): 65 | herbicidal activity against ERICA found (ERICA; [10]): 25 | herbicidal activity against ERICA found (ERICA; [11]): 65 | herbicidal activity against ECHCG found (ECHCG; [8]): 20 | herbicidal activity against POLCO found (POLCO; [7]): 40 | herbicidal activity against POLCO found (POLCO; [10]): 40 | herbicidal activity against POLCO found (POLCO; [11]): 70 | herbicidal activity against IPOHE found (IPOHE; [7]): 40 | herbicidal activity against IPOHE found (IPOHE; [9]): 60

C/C(=N\NC(=O)Nc1cc(F)cc(F)c1)c1ncccc1C(=O)O [B.174, diflufenzopyr]
herbicidal activity against STEME found (STEME; B.174 alone 40 g/ha a.i.): 50 | pest or weed control at 20 g/ha (KCHSC; Bassia scoparia, post-emergence, 480 h, read-out: herbicidal activity against KCHSC found): 65% | pest or weed control at 20 g/ha (ALOMY; Alopecurus myosuroides, post-emergence, 480 h, read-out: herbicidal activity against ALOMY found): 0% | pest or weed control at 20 g/ha (MATCH; [12]): 70% | pest or weed control at 40 g/ha (MATCH; [12]): 70% | pest or weed control at 20 g/ha (POLCO; Fallopia convolvulus, post-emergence, 480 h, read-out: herbicidal activity against POLCO found): 30% | pest or weed control at 20 g/ha (ABUTH): 85% | pest or weed control at 40 g/ha (VIOAR): 65% | pest or weed control at 20 g/ha (APESV; Apera spica-venti, post-emergence, 480 h, read-out: herbicidal activity against APESV found): 0%

CCCCCCCCSC(=O)Oc1cc(Cl)nnc1-c1ccccc1 [B.191, pyridate]
herbicidal activity against STEME found (STEME; [13]): 0% | herbicidal activity against GALAP found (GALAP; [13]): 90% | herbicidal activity against ERICA found (ERICA; [13]): 70% | herbicidal activity against MATCH found (MATCH; [13]): 20%
